One test addresses HDAC2 (Homo sapiens, UniProt Q92769). The test is described as follows: In vitro HDAC activity assay (HDAC-Glo I/II), HDAC2. Type of test: biochemical. Also on record: purchased BPS Bioscience 50002. The following applies: average of three independent assays ± standard deviation. How it is done:
(§1) Purified HDAC1, HDAC2, and HDAC3 (in complex with the deacetylase activation domain of the human NCOR2 (amino acids 395-498)) were obtained from Enzo Life Sciences (HDAC1, catalog # BML-SE456-0050) and BPS Bioscience (HDAC2, catalog #50002 and HDAC3, catalog #50003), respectively. The enzyme activities were tested using the HDAC-Glo I/II reagents (Promega) according to a protocol provided by the manufacturer.

Another test deals with MDA-MB-468 cells. The test can be described thus: Cell viability assay (CellTiter-Glo). Type of test: cell-based. The following applies: MDA-MB-468, 72 h; similar trends in MDA-MB-231 and T47D cells. How it is done:
MDA-MB-468, MDA-MB-231, and T47D cells were treated with the indicated compounds at different concentrations for 72 h. Cell viability was assessed with CellTiter-Glo® reagents.
Cell lines were obtained from ATCC and subsequently authenticated. Cells were cultured with DMEM supplemented with 10% bovine calf serum, penicillin to 10 units/mL, and streptomycin to 10 μg/mL. For viability assays, 5,000 cells/well were seeded in 96-well plates. Compounds at a specified concentration or DMSO were added 24 h later. Viability assays were performed 72 h after compound addition using the CellTiter-Glo reagents (Promega). For colony formation assay, cells (˜1,000 cells/well) were seeded in a 24-well plate in quadruplicates. At 24 h after seeding, DMSO, XZ9002, or XZ9002-NC were added at a specified concentration. Medium was replaced with freshly prepared medium containing DMSO, XZ9002 or XZ9002-NC every five days until visible colonies appeared, typically in 15 to 20 days after initial cell seeding. Cells were fixed with 4% paraformaldehyde for 15 min and stained with 2% methylene blue in 20% ethanol for 30 min to 1 h. The cells were washed twice with distilled water and dried in air. For western blotting, cell cultures were exposed to compounds as indicated in relevant figures. Medium was removed from culture plate, and 1 x passive lysis buffer was then added, the plates were frozen at −80° C. overnight and thawed at room temperature. The total cell lysates were mixed with a one fifth volume of 6x SDS sample buffer, heated at 95° C. for 5 min and cooled on ice. The lysates were cleared by centrifugation and then subjected to SDS-PAGE and western blotting essentially as described. […]

Another test has as its target HDAC1 (Homo sapiens, UniProt Q13547). The test can be described thus: In vitro HDAC activity assay (HDAC-Glo I/II), HDAC1. It is filed as biochemical. Also on record: purchased Enzo Life Sciences BML-SE456-0050. The following applies: average of three independent assays ± standard deviation. How it is done: as §1
For test [1], the target named is T1, HDAC3 (in complex with the deacetylase activation domain of the human NCOR2 (amino acids 395-498)) (Homo sapiens, UniProt O15379).
T1 construct: purchased BPS Bioscience 50003
T1 sequence (O15379 whole entry, the tested form may be a part): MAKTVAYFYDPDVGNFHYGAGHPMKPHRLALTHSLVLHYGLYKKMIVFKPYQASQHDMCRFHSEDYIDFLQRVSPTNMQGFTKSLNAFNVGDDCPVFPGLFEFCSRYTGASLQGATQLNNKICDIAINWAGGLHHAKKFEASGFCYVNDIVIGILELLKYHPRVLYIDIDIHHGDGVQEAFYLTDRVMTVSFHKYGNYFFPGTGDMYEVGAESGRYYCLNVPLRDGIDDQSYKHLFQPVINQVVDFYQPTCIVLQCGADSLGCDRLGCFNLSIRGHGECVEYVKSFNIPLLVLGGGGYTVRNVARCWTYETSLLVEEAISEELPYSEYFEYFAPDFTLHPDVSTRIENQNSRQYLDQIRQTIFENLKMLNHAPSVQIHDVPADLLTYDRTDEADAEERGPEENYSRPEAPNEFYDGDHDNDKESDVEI
T1 sequence (Q9Y618 395-498 partner limits assumed): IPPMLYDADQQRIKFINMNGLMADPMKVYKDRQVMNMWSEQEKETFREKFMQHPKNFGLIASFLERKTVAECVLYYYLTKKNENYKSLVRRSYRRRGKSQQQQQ
The test can be described thus: In vitro HDAC activity assay (HDAC-Glo I/II), HDAC3. It is filed as biochemical. The following applies: HDAC-Glo I/II; average of three independent assays ± standard deviation. How it is done: as §1

A word on the IC50: it is the concentration that gives 50% inhibition.

Sequence of HDAC2 (Q92769 whole entry, the tested form may be a part): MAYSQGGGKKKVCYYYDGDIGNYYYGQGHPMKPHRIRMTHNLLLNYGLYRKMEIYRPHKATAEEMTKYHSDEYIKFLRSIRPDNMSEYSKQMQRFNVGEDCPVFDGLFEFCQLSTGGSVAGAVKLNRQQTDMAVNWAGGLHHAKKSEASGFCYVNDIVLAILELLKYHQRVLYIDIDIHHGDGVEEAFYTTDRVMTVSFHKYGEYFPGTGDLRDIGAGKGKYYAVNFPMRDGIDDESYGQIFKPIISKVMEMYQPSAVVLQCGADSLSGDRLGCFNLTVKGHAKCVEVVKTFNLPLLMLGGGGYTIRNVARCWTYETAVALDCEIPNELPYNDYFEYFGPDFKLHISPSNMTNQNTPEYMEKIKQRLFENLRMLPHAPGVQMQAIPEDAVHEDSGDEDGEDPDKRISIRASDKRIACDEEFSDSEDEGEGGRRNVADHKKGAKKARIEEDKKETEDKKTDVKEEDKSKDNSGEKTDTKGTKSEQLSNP
Sequence of HDAC1 (Q13547 whole entry, the tested form may be a part): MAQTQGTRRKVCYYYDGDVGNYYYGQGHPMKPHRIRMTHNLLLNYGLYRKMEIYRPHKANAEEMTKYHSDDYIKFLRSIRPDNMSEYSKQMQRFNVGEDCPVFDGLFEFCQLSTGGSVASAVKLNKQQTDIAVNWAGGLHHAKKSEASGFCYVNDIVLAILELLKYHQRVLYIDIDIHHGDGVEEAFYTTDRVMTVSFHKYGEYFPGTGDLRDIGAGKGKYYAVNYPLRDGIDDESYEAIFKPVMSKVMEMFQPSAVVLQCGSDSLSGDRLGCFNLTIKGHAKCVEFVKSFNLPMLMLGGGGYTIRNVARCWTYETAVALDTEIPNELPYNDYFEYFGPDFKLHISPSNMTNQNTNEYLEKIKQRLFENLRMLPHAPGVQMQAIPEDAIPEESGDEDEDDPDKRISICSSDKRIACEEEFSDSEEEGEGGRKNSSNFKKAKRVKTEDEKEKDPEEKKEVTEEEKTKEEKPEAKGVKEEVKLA

For `CCCNNC(=O)c1ccc(-c2ccc(NC(=O)CCCCCCC(=O)N[C@H](C(=O)N3C[C@H](O)C[C@H]3C(=O)N[C@@H](C)c3ccc(-c4scnc4C)cc3)C(C)(C)C)cc2)cc1` [XZ9002, N^1—((S)-1-((2S,4R)-4-hydroxy-2-(((S)-1-(4-(4-methylthiazol-5-yl)phenyl)ethyl)carbamoyl)pyrrolidin-1-yl)-3,3-dimethyl-1-oxobutan-2-yl)-N^5-(4′-(2-propylhydrazine-1-carbonyl)-[1,1′-biphenyl]-4-yl)octanediamide], the 50% inhibitory concentration (IC50) is 1550 ± 70 nM against HDAC2, 650 ± 70 nM on HDAC1 and 350 ± 70 nM in test [1]. In the test on MDA-MB-468 cells, the “antiproliferative activity (in words)” value is “more potent in killing cancer cells”.
